Data as given in patent US9650339B2, “Inhibitors of histone demethylases” (Gilead Sciences, Inc., priority 2013, dated 2017).
pIC50: −log10 of the molar value.

Tested on: H3K4me3 mark
Assay: Histone lysine demethylase immunofluorescence assay, non-transfected U2OS cells
Assay type: cell-based
Settings: Homo sapiens, staining of the H3K4me3 mark, 20 hours incubation with compound
How it was run: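 Non-transfected U2OS cells incubated with compounds 20 h in DMEM/5% FBS. Fixed cells immunostained for H3K4me3 with Hoechst counterstain and imaged by high-throughput microscopy. IC50 based on average cellular H3K4me3 staining.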

pIC50 | SMILES
5.60 to 6.60 | COc1ccccc1CN1CCC(NC(=O)CNCc2cc(CNC3CC3)ccn2)CC1 [Compound 20, 2-[({4-[(cyclopropylamino)-methyl]pyridin-2-yl}methyl)amino]-N-{1-[(2-methoxyphenyl)methyl]-piperidin-4-yl}acetamide]
> 6.60 | CCN(CC)CCCCNCc1cc(C2NCCCN2C)ccn1 (centres unmarked) [Compound 68, [4-(diethylamino)butyl]({[4-(1-methyl-1,3-diazinan-2-yl)pyridin-2-yl]methyl})amine]
